From patent US8829002B2, “Substituted methyl amines, serotonin 5-HT6 receptor antagonists, methods for production and use thereof” (priority 2010, dated 2014)

Tests used:
Format in all cases: in vivo
male mice of BALB/c line [1] = test: Passive Avoidance of mice in the Shuttle Chamber, memory disturbed by Scopolamine; conditions: Scopolamine 0.3 mg/kg, intraperitoneally 30 minutes before training; FIG. 1-3
Experimental: Nootropic action (enhancement of memory disturbed by Scopolamine) of compounds of the general formula 1 in the test “Passive Avoidance of mice in the Shuttle Chamber”. A shuttle chamber (Ugo Basile, Italy) consisted of two sections was used. […] The sections were connected through a hole which could be overlapped by vertical door. The floor of the dark section was made of transverse metal bars on which DC current impulses could be fed. Experiments were carried out in aged male mice of BALB/c line weighing 20-25 grams.
On the first day of the experiment 30 minutes before training mice were injected intraperitoneally with physiological solution, Scopolamine (0.3 mg/kg), or Scopolamine in combination with compound 1.5(1). Each group consisted of 8 animals at least. The animals were placed in the light section, and latent period of the first entry into the dark chamber was registered. Then the vertical door was closed and the animal was punished by 0.6 mA DC current for 3 seconds. After that the animal was taken back to its home cage. In 22-24 hours the same animal was placed again in the light section of the shuttle chamber and latent period of its first entry into the dark section, the total time of its stay in the light section and the number of entries into dark section were registered. Each monitoring lasted for 5 minutes. […]

male mice of BALB/c line [2] = test: Passive Avoidance of mice in the Shuttle Chamber, memory disturbed by MK-801; conditions: MK-801 0.1 mg/kg, intraperitoneally 30 min before training; FIG. 4-6
male mice of BALB/c line [3] = test: Mice Behavior in the Elevated Plus Maze; conditions: 5 minutes, FIG. 7-9
Experimental: Anxiolytic (tranquilizing) action of compounds of the general formula 1 in “Mice Behavior in the Elevated Plus Maze” test. Compounds 1.1(9), 1.5 (1) and 1.8(7) were employed in the experiments. Arm length was 30 cm, width—5 cm, wall hight—15 cm. Two opposite arms were closed from both sides and end surfaces with transparent plexiglass; two others—lighted and opened. A mouse was placed in the maze center, and over a period of 5 minutes the number of opened and closed arms entries and duration of opened and closed arm entries were registered. […] Being in normal state animals avoid opened arms (index of preference makes 0.2-0.3). Compounds with anxiolytic activity (tranquilizing activity) run this value up to 0.5-0.6 and more, and also decrease the number of defecations without changing overall physical activity (general number of arm entries).

Male rats of Vistar line = test: Appetite Control Test; conditions: dose 10 mg/kg intraperitoneally 60 minutes before the test; 16 h food deprivation; FIG. 10
Experimental: Male rats of Vistar line weighing 230-360 g were housed in standard home cages with water and food available with the exception of short periods of food deprivation (16 hs) just before the Appetite test. The Appetite test was carried out in individual cages with overhead cover made of wire in the niches of which a portion of food granules was inserted. Mass of the granules was examined every 30 minutes for 3 h. On the basis of these measurements food consumption was estimated and stated in grams of food per kilogram of body mass. Placebo and compound 1.5(1) (dose 10 mg/kg) were injected intraperitoneally 60 minutes before the test. Each experimental group of animals consisted of 10 rats. Compound was dissolved in sterilized water. The injection volume was 10 ml/kg. Intact animals which were not undergone food deprivation, and animals after food deprivation, but injected with sterilized water, were used as control. Intact animals which were not undergone food deprivation and injected with sterilized water, were used as control. The experiment was carried out also using compounds 1.1(9) and 1.8(7).

Mice of SHK line = test: Prepulse inhibition of the startle response in mice (Apomorphine model); conditions: 1 mg/kg, 60 minutes before the test; FIG. 11
Experimental: Antipsychotic activity of compounds of the general formula 1 in “Prepulse inhibition of the startle response in mice” test. Mice of SHK line weighing about 24-30 g were used in the test. Experiments were carried out during light period of animal's diurnal. Apomorphine hydrochloride and Haloperidol were received from Sigma Chemicals Company, (USA). Apomorphine hydrochloride was dissolved in 0.1% solution of ascorbic acid prepared with sterilized water; it was introduced subcutaneously 15 minutes before the test. Haloperidol was dissolved in sterilized water using emulsifier Twin 80, it was introduced intraperitoneally 60 minutes before the test. Compound 1.5(1) was dissolved in sterilized water, it was introduced subcutaneously 60 minutes before the test. Injection volume was 10 ml/kg. Solution of ascorbic acid prepared with sterilized water and Twin 80 were injected to control group of animals.
The test instrument consisted of a chamber made of transparent plexiglass (manufacturer—Columbia Instruments Company, USA) and placed on a platform; the latter was lodged inside the sound insulating chamber. High frequency sound column transmitting acoustic stimulus was located 2 cm away from the platform. […] Level of background noise made up 65 dB. Each animal received 4 stimuli of single testing (pulse) stimulus of 50 ms duration and 105 dB or prepulsory stimulus (pre-pulse) of 20 ms duration and 85 dB, after which in 30 ms pulse stimulus of 50 ms duration and 105 dB followed. Time interval between repeated pulse or prepulse in combination with pulse stimuli made up 10 s. Inhibition of the startle in reply to prepulse-plus-pulse stimulus was calculated in percentage towards amplitude of startle in response to isolated pulse stimulus. Administration of Apomorphine, which is used in experiments on animals for modelling of psychoto-like conditions, caused reduction of prepulse inhibition of startle, which reflected the lowering of CNS ability to filter sensory stimulus. The experiment was also carried out using compounds 1.1(9) and 1.8(7).

male mice of BALB/c line [4] = test: Porsolt's Forced Swim Test; conditions: after 4 days administration in doses of 1 mg/kg; last 5 minutes of 15 min test; FIG. 12
Experimental: Antidepressant action of antagonists of the general formula 1 in Porsolt's Forced Swim Test. The test apparatus represented a plastic vessel filled with water up to height of 18 cm at 20-22° C. Experiments were carried out in aged male mice of BALB/c line weighing 20-24 grams. An animal was placed in water and for 15 minutes the duration of immobile hanging in water—so named behavioural despaire which is considered to be a measure of depressively-like state, was registered. The last 5 minutes of the test were used for estimation. Automated computerized detection of motion with video system and Any-maze program were used in test.

male mice of BALB/c line [5] = test: Tail suspension test; conditions: after 4 days administration in doses of 0.1 mg/kg; 3 minutes; FIG. 13
Experimental: Antidepressant action of compounds of the general formula 1 in tail suspension test. Experiments were carried out in aged male mice of BALB/c line weighing 20-24 grams. In the test mice were suspended by tail with scotch tape on holder over horizontal surface at a height of about 40 cm, and for 3 minutes the total duration of complete immobility episodes which is considered to be a measure of depressively-like state was registered. Automated computerized detection of motion with video system and Any-maze program were used in test.

| Structure (SMILES) | Nootropic action (enhancement of memory disturbed by Scopolamine) (male mice of BALB/c line [1]) | Nootropic action (enhancement of memory disturbed by MK-801) (male mice of BALB/c line [2]) | Anxiolytic (tranquilizing) action (male mice of BALB/c line [3]) | Appetite (food consumption) after food deprivation (Male rats of Vistar line) | Antipsychotic activity: prepulse inhibition of startle disturbed by Apomorphine (Mice of SHK line) | Antidepressant action: duration of immobile hanging in water (behavioural despaire) (male mice of BALB/c line [4]) | Antidepressant action: total duration of complete immobility (male mice of BALB/c line [5]) |
| --- | --- | --- | --- | --- | --- | --- | --- |
| CNc1ccc(N2CCNCC2)cc1S(=O)(=O)c1cccc(F)c1 [1.1(9), methyl-[4-piperazin-1-yl-6-(3-fluorophenylsulfonyl)phenyl]-amine] | produce nootropic action more effectively | produce nootropic action | anxiolytic (tranquilizing) activity comparable to the activity of Buspirone and Lorazepam | capable to prevent appetite rising in rats | prevented disturbance of prepulse inhibition of startle caused by Apomorphine | diminish the given parameter | diminish the duration of complete immobility of mice |
| CNc1c(S(=O)(=O)c2ccccc2)cnc2c(N3CCNCC3)cccc12 [1.5 (1), methyl-(8-piperazin-1-yl-3-phenylsulfonylquinolin-4-yl)-amine] | produce nootropic action more effectively | produce nootropic action | anxiolytic (tranquilizing) activity comparable to the activity of Buspirone and Lorazepam | capable to prevent appetite rising in rats | prevented disturbance of prepulse inhibition of startle caused by Apomorphine | diminish the given parameter | diminish the duration of complete immobility of mice |
| O=C(CCCN1CCC(O)(c2ccc(Cl)cc2)CC1)c1ccc(F)cc1 [Haloperidol, reference compound] | – | – | – | – | prevented disturbance of prepulse inhibition of startle caused by Apomorphine | – | – |
